Test [1] deals with asymmetric di-methyl PABP1 in RKO cells. Briefly: RKO methylation assay: In Cell Western (ICW) for asymmetric di-methyl PABP1 (PABP1me2a). The following applies: Homo sapiens, RKO, 48 h, Cellular-based (PABP1me2a) ICW (In Cell Western) assay. The source says:
RKO adherent cells were purchased from ATCC (American Type Culture Collection), Manassas, Va., USA. DMEM/Glutamax medium, penicillin-streptomycin, heat inactivated fetal bovine serum, 0.05% trypsin and D-PBS were purchased from Life Technologies, Grand Island, N.Y., USA. Odyssey blocking buffer, 800CW goat anti-rabbit IgG (H+L) antibody, and Licor Odyssey infrared scanner were purchased from Licor Biosciences, Lincoln, Nebr., USA. Asymmetric di-methyl PABP1 antibody was purchased from Cell Signaling Technology, Danvers, Mass., USA. Methanol was purchased from VWR, Franklin, Mass., USA. 10% Tween 20 was purchased from KPL, Inc., Gaithersburg, Md., USA. Paraformaldehyde (PFA) was purchased from EM Sciences. DRAQ5 was purchased from Biostatus Limited, Leicestershire, UK.
RKO adherent cells were maintained in growth medium (DMEM/Glutamax medium supplemented with 10% v/v heat inactivated fetal bovine serum and 100 units/mL penicillin-streptomycin) and cultured at 37° C. under 5% CO2.
Cell treatment, In Cell Western (ICW) for detection of asymmetric di-methyl PABP1 and DNA content: RKO cells were seeded in assay medium at a concentration of 30,000 cells per mL to a poly-D-lysine coated 384 well culture plate (BD Biosciences 356697) with 50 μL per well. Compound (100 nL) from a 96-well source plate was added directly to 384 well cell plate. Plates were incubated at 37° C., 5% CO2 for 48 hours. After two days of incubation, plates were brought to room temperature outside of the incubator for ten minutes and blotted on paper towels to remove cell media. Cells were fixed for 20 minutes at room temperature by adding 50 ul of 8% PFA followed by aspiration of supernatant with the Biotek EL406 plate washer. Cells were then permeabilized by addition of 50 μL of ice cold 100% methanol directly to each well and incubated for 30 min at room temperature. After 30 min, plates were transferred to a Biotek EL406 plate washer and washed 2 times with 100 μL per well of wash buffer (1×PBS). Next 60 μL per well of Odyssey blocking buffer (Odyssey Buffer with 0.1% Tween 20 (v/v)) were added to each plate and incubated 1 hour at room temperature. Blocking buffer was removed and 20 μL per well of primary antibody was added (asymmetric-methyl PABP1) diluted 1:400 in Odyssey buffer with 0.1% Tween 20 (v/v)) and plates were incubated overnight (16 hours) at 4° C. Plates were washed 5 times with 100 μL per well of wash buffer. Next 20 μL per well of secondary antibody was added (1:800 800CW goat anti-rabbit IgG (H+L) antibody, 1:2000 DRAQ5 in Odyssey buffer with 0.1% Tween 20 (v/v)) and incubated for 1 hour at room temperature. The plates were washed 5 times with 100 μL per well wash buffer then 2 times with 100 μL per well of water. Plates were allowed to dry at room temperature then imaged on the Licor Odyssey machine which measures integrated intensity at 700 nm and 800 nm wavelengths. Both 700 and 800 channels were scanned.
First, the ratio for each well was determined by:
Each plate included fourteen control wells of DMSO only treatment (minimum inhibition) as well as fourteen control wells for maximum inhibition treated with 20 μM of a reference compound. The average of the ratio values for each control type was calculated and used to determine the percent […] for each test well in the plate. Reference compound was serially diluted three-fold in DMSO for a total of nine test concentrations, beginning at 20 μM.
Percent inhibition was determined and IC50 curves were generated using triplicate wells per concentration of compound.

The target of a further test is T1, Human CARM1 (PRMT4) (Homo sapiens, UniProt Q86X55).
T1 construct: Flag-CARM1-His was eluted with 200 ug/ml FLAG peptide in buffer A; made in house; host or cells: HEK 293F cells infected with recombinant baculovirus (pFastBacMam)
T1 sequence (Q86X55 1-585 isoform Q86X55-1): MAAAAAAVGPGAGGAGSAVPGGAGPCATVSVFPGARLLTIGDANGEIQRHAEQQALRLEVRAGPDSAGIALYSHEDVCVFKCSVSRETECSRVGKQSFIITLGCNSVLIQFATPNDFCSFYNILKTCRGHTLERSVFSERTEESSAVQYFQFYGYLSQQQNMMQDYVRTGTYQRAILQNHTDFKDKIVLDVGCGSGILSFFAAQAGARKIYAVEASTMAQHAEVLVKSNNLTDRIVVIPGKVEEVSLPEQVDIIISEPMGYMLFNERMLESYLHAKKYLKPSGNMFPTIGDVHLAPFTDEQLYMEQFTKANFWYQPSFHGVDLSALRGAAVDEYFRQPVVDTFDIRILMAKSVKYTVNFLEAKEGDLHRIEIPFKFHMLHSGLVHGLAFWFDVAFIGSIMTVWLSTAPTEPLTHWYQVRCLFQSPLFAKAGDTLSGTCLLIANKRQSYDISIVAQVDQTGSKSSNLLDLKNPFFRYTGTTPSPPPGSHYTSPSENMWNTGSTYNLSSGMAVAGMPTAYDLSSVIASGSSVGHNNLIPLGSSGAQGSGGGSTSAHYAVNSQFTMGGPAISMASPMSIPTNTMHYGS
Kind of test: CARM1 enzyme assay on peptide substrates (3H-SAM Flashplate). The following applies: Biochemical assay; CARM1 0.25 nM, 3H-SAM 30 nM, peptide 250 nM; read-out: Biochem IC50. The source says:
S-adenosylmethionine (SAM), S-adenosylhomocysteine (SAH), bicine, Tween20, dimethylsulfoxide (DMSO), bovine skin gelatin (BSG), sodium butyrate and Tris(2-carboxyethyl)phosphine hydrochloride solution (TCEP) were purchased from Sigma-Aldrich at the highest level of purity possible. ^3H-SAM was purchase from American Radiolabeled Chemicals with a specific activity of 80 Ci/mmol. 384-well streptavidin Flashplates were purchased from PerkinElmer.
Peptide representative of human histone H3 residues 16-30 was synthesized with an N-terminal linker-affinity tag motif and a C-terminal amide cap by 21st Century Biochemicals. […] The sequence was Biot-Ahx-[…]-amide and contained a monomethylated arginine at position 26 (SEQ ID NO.:1).
The gene sequence encoding isoform1 containing a deletion of amino acids 539-561 was amplified subsequently and subcloned into pFastBacMam (Viva Biotech).
Recombinant baculovirus were generated according to Bac-to-Bac kit instructions (Life Technologies). Protein over-expression was accomplished by infecting exponentially growing HEK 293F cell culture at 1.3×10^6 cell/ml with virus (MOI=10) in the presence of 8 mM sodium butyrate. Infections were carried out at 37° C. for 48 hours, harvested by centrifugation, and stored at −80° C. for purification.
Column was washed with 500 mM NaCl in buffer A and Flag-CARM1-His was eluted with 200 ug/ml FLAG peptide in buffer A. Pooled fractions were dialyzed in 20 mM Tris, 150 mM NaCl, 5% glycerol and 1 mM DTT, pH 7.8.
The assays were all performed in a buffer consisting of 20 mM Bicine (pH=7.6), 1 mM TCEP, 0.005% BSG, and 0.002% Tween 20, prepared on the day of use. Compounds in 100% DMSO (1 ul) were spotted into a polypropylene 384-well V-bottom plates (Greiner) using a Platemate Plus outfitted with a 384-channel head (Thermo Scientific). DMSO (1 ul) was added to Columns 11, 12, 23, 24, rows A-H for the maximum signal control and 1 ul of SAH, a known product and inhibitor of CARM1, was added to columns 11, 12, 23, 24, rows I-P for the minimum signal control. A cocktail (40 ul) containing the CARM1 enzyme was added by Multidrop Combi (Thermo-Fisher). The compounds were allowed to incubate with CARM1 for 30 min at room temperature, then a cocktail (10 ul) containing ^3H-SAM and peptide was added to initiate the reaction (final volume=51 ul). The final concentrations of the components were as follows: CARM1 was 0.25 nM, ^3H-SAM was 30 nM, peptide was 250 nM, SAH in the minimum signal control wells was 1 mM, and the DMSO concentration was 2%. The assays were stopped by the addition of non-radiolabeled SAM (10 ul) to a final concentration of 300 uM, which dilutes the ^3H-SAM to a level where its incorporation into the peptide substrate is no longer detectable. 50 ul of the reaction in the 384-well polypropylene plate was then transferred to a 384-well Flashplate and the biotinylated peptides were allowed to bind to the streptavidin surface for at least 1 hour before being washed once with 0.1% Tween20 in a Biotek ELx405 plate washer. The plates were then read in a PerkinElmer TopCount plate reader to measure the quantity of ^3H-labeled peptide bound to the Flashplate surface, measured as disintegrations per minute (dpm) or alternatively, referred to as counts per minute (cpm).
where dpm=disintegrations per minute, cmpd=signal in assay well, and min and max are the respective minimum and maximum signal controls.
where top and bottom are the normally allowed to float, but may be fixed at 100 or 0 respectively in a 3-parameter fit. The Hill Coefficient normally allowed to float but may also be fixed at 1 in a 3-parameter fit. Y is the % inhibition and X is the compound concentration.

The structures appear in SMILES notation. pIC50: −log10 of the molar value.

Consider `CNC[C@@H](O)COc1ccc(Cl)c(-c2nc(-c3c(C)noc3C)c(C)c(N3CC4(CCN(C(=O)N(C)C)C4)C3)n2)c1` [Example 48], for which the pIC50 is 6.62 in test [1] and 7.90 on Human CARM1 (PRMT4).
For `CNC[C@@H](O)COc1ccc(Cl)c(-c2nc(-c3c(C)noc3C)c(C)c(N3CC4(CCN(S(C)(=O)=O)C4)C3)n2)c1` [Example 49], in that order: 6.40 and 8.11.
On the same counts, the results for `CNC[C@@H](O)COc1ccc(Cl)c(-c2nc(-c3c(C)noc3C)c(C)c(N3CC4(CCN(C5COC5)C4)C3)n2)c1` [Example 50] are 6.81 and 8.06.
For the compound `CNC[C@@H](O)COc1ccc(Cl)c(-c2nc(-c3c(C)noc3C)c(C)c(N3CC4(CCN(C(C)=O)CC4)C3)n2)c1` [Example 51], the pIC50 in test [1] was 6.45; on Human CARM1 (PRMT4), 7.97.
For `CNC[C@@H](O)COc1ccc(Cl)c(-c2nc(-c3c(C)noc3C)c(C)c(N3CC4(CCN(S(C)(=O)=O)CC4)C3)n2)c1` [Example 52], in that order: 6.64 and 8.14.
On the same counts, the results for `CNC[C@@H](O)COc1ccc(Cl)c(-c2nc(-c3c(C)noc3C)c(C)c(N3C[C@H]4CN(C(=O)OC)C[C@H]4C3)n2)c1` [Example 53] are 6.70 and 8.28.
For `CNC[C@@H](O)COc1ccc(Cl)c(-c2nc(-c3c(C)noc3C)c(C)c(N3CC4=C(CN(CC(F)F)C4)C3)n2)c1` [Example 54], in that order: 7.35 and 8.36.
For `CNC[C@@H](O)COc1ccc(Cl)c(-c2nc(-c3c(C)noc3C)c(C)c(N3CC4=C(CN(C(=O)OC)C4)C3)n2)c1` [Example 55], the figures for the pIC50 (in test [1]; on Human CARM1 (PRMT4)) were 7.89 and 8.44, respectively.
Take `CNC[C@@H](O)COc1ccc(F)c(-c2nc(-c3c(C)noc3C)c(C)c(N3CC4(CCC(F)CC4)C3)n2)c1` [Example 56]: the negative-log IC50 (pIC50) was 6.95 in test [1] and 8.42 at Human CARM1 (PRMT4).
For `CNC[C@@H](O)COc1ccc(F)c(-c2nc(-c3c(C)noc3C)c(C)c(N3CC4(CC=CCC4)C3)n2)c1` [Example 57], in that order: 6.56 and 8.47.
For `CNC[C@@H](O)COc1ccc(Cl)c(-c2nc(-c3c(Cl)cnn3C)c(C)c(N3Cc4cccnc4C3)n2)c1` [Example 58], in that order: 7.14 and 8.85.
For `CNC[C@@H](O)COc1cccc(-c2nc(-c3c(C)cnn3C)c(C)c(N3Cc4cccnc4C3)n2)c1` [Example 59], in that order: 6.53 and 8.74.
On to `CNC[C@@H](O)COc1cccc(-c2nc(-c3c(C)cnn3C)c(C)c(N3Cc4cncnc4C3)n2)c1` [Example 60], for which the negative-log IC50 (pIC50) in test [1] was 6.41; on Human CARM1 (PRMT4) it was 8.41.
For `CNC[C@@H](O)COc1cccc(-c2nc(-c3c(C)cnn3C)c(C)c(N3CC4(CCN(C(=O)OC)CC4)C3)n2)c1` [Example 61], the results for the negative logarithm of the IC50 (pIC50) (in test [1]; on Human CARM1 (PRMT4)) were 6.06 and 7.86, respectively.
For `CNC[C@@H](O)COc1ccc(Cl)c(-c2nc(-c3c(C)noc3C)c(C)c(N3CC4(CN(CC(F)F)C4)C3)n2)c1` [Example 62], in that order: 6.28 and 7.19.
On the same counts, the results for `CNC[C@@H](O)COc1ccc(Cl)c(-c2nc(-c3c(C)noc3C)c(C)c(N3CC4(CCN(C(C)=O)C4)C3)n2)c1` [Example 63] are 5.69 and 7.96.
Turning to `CNC[C@@H](O)COc1ccc(Cl)c(-c2nc(-c3c(C)noc3C)c(C)c(N3CC4(CCN(C5COC5)CC4)C3)n2)c1` [Example 64], the negative-log IC50 (pIC50) is 6.95 in test [1] and 7.96 on Human CARM1 (PRMT4).
Take `CNC[C@@H](O)COc1ccc(Cl)c(-c2nc(-c3c(C)noc3C)c(C)c(N3C[C@]4(C)CN(C(=O)OC)C[C@]4(C)C3)n2)c1` [Example 65]: the values for the negative logarithm of the IC50 (pIC50) (in test [1]; at Human CARM1 (PRMT4)) were 6.63 and 8.11, respectively.
Take `CNC[C@@H](O)COc1ccc(Cl)c(-c2nc(-c3c(C)noc3C)c(C)c(N3Cc4nc(C)n(C)c(=O)c4C3)n2)c1` [Example 66]: the negative logarithm of the IC50 (pIC50) is 6.58 in test [1] and 8.43 on Human CARM1 (PRMT4).

By pIC50 is commonly meant −log10 of the IC50, conventionally taken in molar units.
